From PMC9025336 (Antibiotics, 2022)
Converted amounts (≈) assume the structure as drawn. Peptide text beside a SMILES is read from it. * marks the point of attachment. Orn(α-tetramethylguanidino) = CN(C)C(=N[C@@H](CCCN)C(=O)*)N(C)C

How the values were obtained:
[1] = system: E. coli BL21 (DE3) sbmA::Tn10^Cm; assay type: cell-based, Escherichia coli
Procedure: The minimal inhibitory concentrations (MIC) were determined at least twice in triplicate using a liquid broth microdilution assay in sterile 96-well plates and a total volume of 100 μL per well. Aqueous peptide solutions were serially 2-fold diluted in 25% MHBII or 33% TSB medium in a volume of 50 µL. An overnight culture was diluted in 25% MHBII or 33% TSB medium to 1.5 × 10^7 CFU/mL, and an aliquot of 50 μL was added to each well. The final cell count in each well was 7.5 × 10^6 CFU/mL. The plates were incubated at 37 °C for 20 ± 2 h. The turbidity of each well was measured at a wavelength of 600 nm. The MIC was defined as the lowest peptide concentration where the turbidity was identical to medium only.
E. coli strain BL21(DE3) was randomly mutagenized by Tn10 insertion using the lambda phage lysate λNK1324 carrying a chloramphenicol resistance and grown on LB agar plates in the presence of chloramphenicol (15 µg/mL) at 30 °C overnight. The resistant colonies were transferred to 25% MHBII agar plates containing Api137 (32 or 64 µg/mL) and incubated again at 37 °C overnight. Genomic DNA was isolated by a Monarch® Genomic DNA purification kit (New England Biolabs, Frankfurt am Main, Germany) from the presumed double-resistant strains, and the sequences flanking the transposon insertion were determined by arbitrary primed PCR using arbitrary primer ARB6 and Tn10 transposon-specific primer IS10-R complementary to the IS10 element of Tn10 transposon. The first round of amplification included six cycles of denaturation (95 °C, 30 s), annealing (30 °C, 30 s), and extension (72 °C, 90 s), followed by 30 cycles of denaturation (95 °C, 30 s), annealing (45°C, 30 s), and extension (72 °C, 2 min), as well as a final extension (72 °C, 6 min). The second round of amplification used arbitrary primer ARB2 and primer IS10-R. The PCR consisted of 30 cycles of denaturation (95 °C, 30 s), annealing (52 °C, 30 s), and extension (72 °C, 2 min), followed by a final extension step (72 °C, 6 min). PCR products were purified with the NucleoSpin® Gel and a PCR cleanup kit (Macherey-Nagel, Düren, Germany) and sequenced using primer IS10-R (Eurofins MWG Operon, Ebersberg, Germany), and the corresponding protein was identified in a sequence database (UniProt and NCBI, 2021).

[2] = target: BW25113 ribosome extract, ribosomal binding site of Api137; assay: Fluorescence polarization competition against cf-Api137 (Ki); parameters: species or system Escherichia coli; details: unlabeled PrAMP against cf-labeled Api137, calculated from IC50, 95% confidence interval in brackets
Procedure: E. coli BW25113 and E. coli Rosetta pLysS were cultivated in LB medium and harvested at an OD600 of ~4 by centrifugation (5000× g, 30 min, 4 °C). The cell pellets were washed by resuspension in ribosome preparation buffer (20 mmol/L Hepes-KOH, 6 mmol/L MgCl2, 30 mmol/L NH4Cl, pH 7.6, 4°C) and subsequent centrifugation (5000× g, 30 min, 4 °C). Cell pellets were suspended in ribosome preparation buffer ([…]) containing freshly added 2-mercapotethanol (4 mmol/L). Lysozyme was added to the resuspended cells and incubated on ice for 30 min. The cell suspension was disrupted six times using a FastPrep-24^TM 5G instrument (MP Biomedicals, Solon, OH, USA) with BigPrep 50 mL setting (40 s, 4.0 m/s), incubated with DNase I (5 mL/L) on ice for one hour and centrifuged (16,000× g, 30 min, 4 °C). The cell debris was removed from the supernatant by centrifugation (32,000× g, 60 min, 4 °C), and the supernatant was centrifuged again (165,000× g, 17 h, 4 °C). The pellet was resuspended in ribosome preparation buffer (0.1 mL per g cell pellet) to obtain the 70S ribosome extract and stored at −80 °C. The ribosome concentration was estimated by recording the absorbance at 260 nm (1 AU for a ribosome concentration of 28 nmol/L). The molecular weight of the 70S E. coli ribosome was assumed to be 2.3 MDa.
Ki was determined for ribosome extracts using cf-labeled and unlabeled peptides in ribosome preparation buffer. Black 384-well plates were prepared as described above. Unlabeled peptides or antibiotics (20 µL, 656 µmol/L) were added and 2-fold serially diluted in 23 wells in ribosome preparation buffer. A ribosome solution was prepared by adjusting the ribosome concentration to ~90% of the upper Kd plateau obtained for the cf-labeled peptide to be studied and added to each well (10 µL). […] The fluorescence polarization was measured on a PARADIGMTM microplate reader in the top read position (λexc = 485 nm, λem = 535 nm) in triplicate on at least two different days. […] Inhibition constants, Ki, were calculated as described by Mathias and Jung.

SMILES | MIC, 25% MHBII ([1]; BL21 (DE3) sbmA::Tn10^Cm, 25% MHBII containing IPTG (0.1 mmol/L)) | MIC, 33% TSB ([1]; BL21 (DE3) sbmA::Tn10^Cm, 33% TSB containing IPTG (0.1 mmol/L)) | Ki [2] | MIC in the E. coli BL21 sbmA::Tn10^Cm strain ([1]; medium not stated (Table 3: 25% MHBII and 33% TSB))
CC[C@H](C)[C@H](NC(=O)[C@H](Cc1ccc(O)cc1)NC(=O)[C@@H](NC(=O)[C@@H]1CCCN1C(=O)[C@H](CCCNC(=N)N)NC(=O)[C@H](CC(N)=O)NC(=O)[C@H](CC(N)=O)NC(=O)[C@H](CCCN)N=C(N(C)C)N(C)C)C(C)C)C(=O)N1CCC[C@H]1C(=O)N[C@@H](CCCNC(=N)N)C(=O)N1CCC[C@H]1C(=O)N[C@@H](CCCNC(=N)N)C(=O)N1CCC[C@H]1C(=O)N1CCC[C@H]1C(=O)N[C@@H](Cc1c[nH]cn1)C(=O)N1CCC[C@H]1C(=O)N[C@@H](CCCNC(=N)N)C(=O)N[C@@H](CC(C)C)C(=O)O [Api137] ({Orn(α-tetramethylguanidino)}-NNRPVYIPRPRPPHPRL-OH) | 16 µg/mL (≈ 6.98 µM) | 16 µg/mL (≈ 6.98 µM) | 2 nM | –
CC[C@H](C)[C@H](NC(=O)[C@@H]1CCCN1C(=O)[C@H](CCCNC(=N)N)NC(=O)[C@H](CC(N)=O)NC(=O)[C@H](CC(N)=O)NC(=O)CN)C(=O)N[C@@H](Cc1ccc(O)cc1)C(=O)N[C@H](C(=O)N1CCC[C@H]1C(=O)N[C@@H](CCCNC(=N)N)C(=O)N1CCC[C@H]1C(=O)N[C@@H](CCCNC(=N)N)C(=O)N1CCC[C@H]1C(=O)N1CCC[C@H]1C(=O)N[C@@H](Cc1c[nH]cn1)C(=O)N1CCC[C@H]1C(=O)N[C@@H](CCCNC(=N)N)C(=O)N1CCC[C@H]1C(=O)N[C@H](C(=O)N[C@@H](CCCNC(=N)N)C(=O)N[C@H](C(=O)O)C(C)C)[C@@H](C)CC)[C@@H](C)CC [Api805] (H-GNNRPIYIPRPRPPHPRPIRV-OH; N-terminus assumed) | – | – | 1070 nM | 128 µg/mL
